Test: xn = mol fraction of the nth substance listed
Conditions: 101 kPa, Liquid; for speed of sound: Sing-around technique in a fixed-path interferometer; for mass density: Vibrating tube method

CCCCCn1cc[n+](C)c1.[Br-] [1-pentyl-3-methylimidazolium bromide] + OCCO
Conditions	mass density [kg/m3]	speed of sound [m/s]
288.15 K, x1 = 0.0528	1135.7	1671.7
288.15 K, x1 = 0.1031	1149.85	1664.4
288.15 K, x1 = 0.2102	1173.93	1650.6
288.15 K, x1 = 0.3163	1191.2	1645.3
288.15 K, x1 = 0.4186	1204.89	1641.4
288.15 K, x1 = 0.512	1215.13	1637.7
288.15 K, x1 = 0.6129	1224.18	1636.5
288.15 K, x1 = 0.6967	1232.13	1638.7
288.15 K, x1 = 0.8031	1241.92	1645
288.15 K, x1 = 0.9021	1252.46	1657.9
293.15 K, x1 = 0.0528	1132.19	1659.9
293.15 K, x1 = 0.1031	1146.32	1653.9
293.15 K, x1 = 0.2102	1170.4	1642
293.15 K, x1 = 0.3163	1187.71	1634.5
293.15 K, x1 = 0.4186	1201.44	1628.9
293.15 K, x1 = 0.512	1211.73	1625.5
293.15 K, x1 = 0.6129	1220.73	1623.6
293.15 K, x1 = 0.6967	1228.69	1623.8
293.15 K, x1 = 0.8031	1238.53	1626.3
293.15 K, x1 = 0.9021	1249.15	1631.1
298.15 K, x1 = 0.0528	1128.67	1648.2
298.15 K, x1 = 0.1031	1142.79	1640.8
298.15 K, x1 = 0.2102	1166.87	1630.7
298.15 K, x1 = 0.3163	1184.21	1623
298.15 K, x1 = 0.4186	1198	1616.8
298.15 K, x1 = 0.512	1208.33	1613.8
298.15 K, x1 = 0.6129	1217.41	1612.4
298.15 K, x1 = 0.6967	1225.25	1611.9
298.15 K, x1 = 0.8031	1235.13	1613.2
298.15 K, x1 = 0.9021	1245.76	1616
303.15 K, x1 = 0.0528	1125.14	1636.4
303.15 K, x1 = 0.1031	1139.26	1629.8
303.15 K, x1 = 0.2102	1163.34	1619.1
303.15 K, x1 = 0.3163	1180.73	1611.6
303.15 K, x1 = 0.4186	1194.57	1606.2
303.15 K, x1 = 0.512	1204.94	1603
303.15 K, x1 = 0.6129	1214.06	1601.7
303.15 K, x1 = 0.6967	1221.86	1600.4
303.15 K, x1 = 0.8031	1231.73	1600.9
303.15 K, x1 = 0.9021	1242.37	1602.4
308.15 K, x1 = 0.0528	1121.61	1624.7
308.15 K, x1 = 0.1031	1135.72	1618.3
308.15 K, x1 = 0.2102	1159.81	1607.5
308.15 K, x1 = 0.3163	1177.25	1600.1
308.15 K, x1 = 0.4186	1191.13	1594.3
308.15 K, x1 = 0.512	1201.54	1591.3
308.15 K, x1 = 0.6129	1210.72	1590
308.15 K, x1 = 0.6967	1218.56	1589.1
308.15 K, x1 = 0.8031	1228.31	1589.3
308.15 K, x1 = 0.9021	1238.93	1589.8
313.15 K, x1 = 0.0528	1118.07	1613.1
313.15 K, x1 = 0.1031	1132.18	1606.5
313.15 K, x1 = 0.2102	1156.29	1596.1
313.15 K, x1 = 0.3163	1173.78	1588.8
313.15 K, x1 = 0.4186	1187.7	1583.2
313.15 K, x1 = 0.512	1198.15	1580.3
313.15 K, x1 = 0.6129	1207.38	1579.1
313.15 K, x1 = 0.6967	1215.25	1578.2
313.15 K, x1 = 0.8031	1225	1578
313.15 K, x1 = 0.9021	1235.48	1578
318.15 K, x1 = 0.0528	1114.51	1601.4
318.15 K, x1 = 0.1031	1128.62	1595
318.15 K, x1 = 0.2102	1152.75	1584.5
318.15 K, x1 = 0.3163	1170.3	1577.5
318.15 K, x1 = 0.4186	1184.27	1572.2
318.15 K, x1 = 0.512	1194.76	1569.5
318.15 K, x1 = 0.6129	1204.05	1568.3
318.15 K, x1 = 0.6967	1211.94	1567.4
318.15 K, x1 = 0.8031	1221.73	1567.1
318.15 K, x1 = 0.9021	1232.06	1566.8

— the NIST ThermoML archive (doi:10.1016/j.fluid.2013.08.029)
